Measured values published in patent publication US4965280A, “Antifungal carbinols” (E. I. Du Pont de Nemours and Company, priority 1989, dated 1990).
In brackets after ≈: the same amount, converted by molar mass. Read-outs that look alike come from different tables or passages of the source.

How the values were obtained:
[1] = test system: Cercosporidium personatum; test: Example B Peanut Late Leafspot; type: in vivo; settings: Nothopassalora personata; 100 PPM; read-out: disease control rating, Ex. B
In short: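 Foliar spray on peanut seedlings, to run-off; test rates 100 or 20 ppm. Formulation: acetone at 6% of final volume, water with 250 ppm polyhydric alcohol ester surfactant.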

[2] = test system: Aspergillus fumigatus ATCC 28214; test: In vitro antifungal MIC, microtiter broth dilution; settings: Aspergillus fumigatus, ATCC28214, 24 h, read-out: MIC values, A. fumigatus, 30°, 24 hours
Sclerotium rolfsii = test: Example M southern blight; type: in vivo; settings: Agroathelia rolfsii, 336 h; 5 kg/ha; read-out: disease control rating, Ex. M
Description: […] Seeds and soil were then inoculated with a mixture of sand, cereal and mycelium of the fungus Sclerotium rolfsii, causal agent of sourthern blight, and incubated in a growth chamber at 30° C. for 14 days. Disease ratings were then made.

[3] = test system: Fusarium oxysporum f. sp. cucumerinum; test: Example L cucumber wilt; type: in vivo; settings: 336 h, 5 kg/ha, read-out: disease control rating, Ex. L
Description: […] Seeds and soil were then inoculated with a mixture of sand, cereal and mycelium of the fungus Fusarium oxysporum f. sp. cucumerinum, causal agent of cucumber wilt, and incubated in a growth chamber at 30° C. for 14 days. Disease ratings were then made.

Rhizoctonia solani [4] = test: Example F rice sheath blight; type: in vivo; settings: Rhizoctonia solani, 144 h, 100 PPM; read-out: disease control rating, Ex. F
In short: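 Spray to run-off on rice seedlings; test suspension 100 or 20 ppm compound in water + 250 ppm TREM 014 surfactant, acetone 6% final volume.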

[5] = test system: Erysiphe graminis f. sp. tritici; test: Example D wheat powdery mildew; type: in vivo; settings: Blumeria graminis, 144 h; 100 PPM; read-out: disease control rating, Ex. D
In short: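 Spray to run-off on wheat seedlings; test suspension 100 or 20 ppm compound, acetone 6% v/v, 250 ppm polyhydric alcohol ester surfactant in water.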

Venturia inaequalis = test: Example A apple scab; type: in vivo; settings: 100 PPM, read-out: disease control rating, Ex. A
In short: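 Acetone solution (6% of final vol.) → suspension at 100 or 20 ppm in water + 250 ppm TREM 014 surfactant; sprayed to run-off on apple seedlings.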

Pyricularia oryzae = test: whole plant or invertebrate; type: in vivo; settings: Pyricularia oryzae, 120 h, read-out: disease control rating, Ex. E, 100 PPM
[6] = test system: Candida albicans ATCC 11651; test: In vitro antifungal MIC, microtiter broth dilution; settings: Candida albicans, ATCC11651, 24 h, read-out: MIC values, C. albicans, 30°, 24 hours
[7] = test system: Candida albicans ATCC 11651; test: In vivo systemic Candida infection in mice, primary assay; design: species or system Candida albicans; CF-1 female mice; settings: Candida albicans, 150 mg/kg per day, read-out: % Survival
In short: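 CF-1 female mice (20 g, 10 per group) were infected IV with 0.2 ml of 1×10^7/ml C. albicans ATCC 11651, then given test compound subcutaneously at 50 or 150 mg/kg/day at 1 and 6 h post-infection and once daily for three more days. Survival was followed for 21 days against infected untreated mice; ≥70% protection at 14 days was scored active.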

Botrytis cinerea = test: Example C bean grey mold; type: in vivo; settings: Botrytis cinerea, 24 h, 100 PPM; read-out: disease control rating, Ex. C
In short: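 Broad bean seedlings; foliar spray to run-off. Cmpd 100 or 20 ppm in water + 250 ppm TREM 014, acetone 6% v/v final.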

Rhizoctonia solani [8] = test: Example K cotton blight; type: in vivo; settings: 336 h, 5 kg/ha, read-out: disease control rating, Ex. K
Description: […] Seeds and soil were then inoculated with a mixture of sand, cereal and mycelium of the fungus Rhizoctonia solani, causal agent of cotton blight, and incubated in a growth chamber at 30° C. for 14 days. Disease ratings were then made.

Pythium aphanadermatum = test: Example J cucumber damping off; type: in vivo; settings: Pythium, 336 h; 5 kg/ha; read-out: disease control rating, Ex. J
In short: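 This cucumber damping-off test used soil and seeds infested with a sand–cereal preparation carrying mycelium of Pythium aphanadermatum. Incubation took place in a growth chamber held at 30° C. for 14 days. Afterwards, the extent of disease was scored as a disease control rating.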

Phytophthora infestans = test: whole plant or invertebrate; type: in vivo; settings: Phytophthora infestans, in Solanum lycopersicum, read-out: disease control rating, Ex. H, 100 PPM
Plasmorpara viticola = test: Example I grape downy mildew; type: in vivo; settings: read-out: disease control rating, Ex. I
In short: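 Applied as a foliar spray to run-off on grape seedlings, the compounds were formulated at 100 or 20 ppm in water containing 250 ppm TREM 014, with acetone making up 6% of the volume.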

Puccinia recondita = test: Example G wheat leaf rust; type: in vivo; settings: 100 PPM, read-out: disease control rating, Ex. G

Compound	pest or weed control at 100 ppm [1] [%]	MIC [2] [µg/mL]	pest or weed control at 5000 g/ha (Sclerotium rolfsii) [%]	pest or weed control at 5000 g/ha [3] [%]	pest or weed control at 100 ppm (Rhizoctonia solani [4]) [%]	pest or weed control at 100 ppm [5] [%]	pest or weed control at 100 ppm (Venturia inaequalis) [%]	pest or weed control at 100 ppm (Pyricularia oryzae) [%]	MIC [6] [µg/mL]	responders at 150 mg/kg ([7]; ATCC11651, 168 h, day 7) [%]	responders at 150 mg/kg ([7]; ATCC11651, 336 h, day 14) [%]	pest or weed control at 100 ppm (Botrytis cinerea) [%]	pest or weed control at 5000 g/ha (Rhizoctonia solani [8]) [%]	pest or weed control at 5000 g/ha (Pythium aphanadermatum) [%]	pest or weed control at 100 ppm (Phytophthora infestans) [%]	pest or weed control at 100 ppm (Plasmorpara viticola) [%]	pest or weed control at 100 ppm (Puccinia recondita) [%]	responders at 150 mg/kg ([7]; ATCC11651, 504 h, day 21) [%]
C=C(c1cccc(Cl)c1)C(O)(Cn1cncn1)c1ccc(F)cc1 (stereo not shown) [Example 39]	97	25 (≈ 72.7 µM)	0	0	100	98	89	7	0.4 (≈ 1.16 µM)	100	80	96	0	0	0	81	100	
C=C(c1ccc(F)cc1)C(O)(Cn1ncnc1S)c1ccccc1F (stereo not shown) [Example 1300]	100	6.3 (≈ 17.5 µM)	0	0	81	92	100	58	≤ 0.4			93	0	0	0	0	100	
C=C(c1ccccc1)C(O)(Cn1ncnc1SCCCC)c1ccc(F)cc1 (stereo not shown) [Example 1459]	70	> 100	0	0	0	31	72	17	> 100			65	0	0	0	74	65	
C=C(c1ccccc1)C(O)(Cn1cncn1)c1ccc(F)c(Cl)c1 (stereo not shown) [Example 605]	99	100 (≈ 291 µM)	0	0		81	70	0	0.2 (≈ 0.582 µM)			32	0	0	0	0	100	
C=C(c1ccc(F)cc1)C(O)(Cn1ncnc1SCC#N)c1ccccc1F (stereo not shown) [Example 1451]	84	> 100	0	0		77	86	2	> 100			48	0	0	0	79	93	
C=C(CO)C(O)(Cn1cncn1)c1ccc(-c2ccccc2)cc1 (stereo not shown) [Example 452]	0		0	0	67	46	36	0	> 100			54	0	0	0	0	30	
C=C(c1ccccc1)C(O)(Cn1cncn1)c1ccccc1F (stereo not shown) [Example 594]	100	0.8 (≈ 2.59 µM)	50	100		77	86	2	0.8 (≈ 2.59 µM)	70	10	93	60	0	0	79	100	0
C=C(CN(C)C)C(O)(Cn1cncn1)c1ccc(Br)cc1 (stereo not shown) [Example 455]	65		0	0	0	12	64	0	25 (≈ 71.2 µM)			0	0	0	0	0	43	
C=C(c1ccccc1)C(O)(Cn1cncn1)c1cc(Cl)cc(Cl)c1 (stereo not shown) [Example 603]	97	> 100	0	0		69	44	0	0.1 (≈ 0.278 µM)	10	0	91	0	0	0	0	95	0
C=C(c1cc(Cl)cc(Cl)c1)C(O)(Cn1cncn1)c1ccc(F)cc1F (stereo not shown) [Example 815]	98	> 100	0	0		62	40	2	0.03 (≈ 0.0757 µM)			0	0	0	0	65	97	
